In brackets after ≈: the same amount, converted by molar mass.

The experiment concerns KB. Nature of the experiment: Cytotoxicity against human KB cells. Conditions: read-out: ED50 (the source's name). Type of experiment: functional.

As to `CC(C)=CC1C[C@@H]([C@@H]2CC=C3[C@]4(C)C(=O)C[C@@H]5[C@](C)(C=CC(=O)[C@]5(C)CO)[C@H]4CC[C@]32C)CO1` (stereo partly specified) [DYSORONE E], the EC50 came out at 3.5 µg/mL (≈ 7.5 µM).
